Reference: the NIST ThermoML archive (doi:10.1016/j.fluid.2005.02.015)

Legend:
[1] = refractive index (Na D-line) (dimensionless); conditions: 293.15 K; 101.33 kPa; Liquid; Standard Abbe refractometry
[2] = Liquid; for mass density: 298.15 K, 101.33 kPa
[3] = xn = mol fraction of the nth substance listed; conditions: 298.15 K, 101.33 kPa, Liquid

CCOC(=O)[C@H](C)O [(S)-(-)-ethyl lactate]
Conditions | mass density [kg/m3] | refractive index
[1] | – | 1.4129
[2] | 1032.94 | –

Conditions | vapor or sublimation pressure [kPa]
[2], 427.65 K | 101.33

CCOC(=O)[C@H](C)O [(S)-(-)-ethyl lactate] + CCO
[3]
Conditions | mass density [kg/m3]
x2 = 0 | 1032.94
x2 = 0.1242 | 1018.42
x2 = 0.2256 | 1004.73
x2 = 0.312 | 991.37
x2 = 0.3921 | 977.447
x2 = 0.5236 | 950.894
x2 = 0.5735 | 939.295
x2 = 0.6735 | 913.364
x2 = 0.7574 | 887.971
x2 = 0.7941 | 875.598
x2 = 0.8267 | 863.971
x2 = 0.8559 | 852.975
x2 = 0.9578 | 809.773

CCCCO [butan-1-ol]
Conditions | mass density [kg/m3] | refractive index
[1] | – | 1.3993
[2] | 809.572 | –

Conditions | vapor or sublimation pressure [kPa]
[2], 390.88 K | 101.33

CCCCO [butan-1-ol] + CCCCOC(=O)[C@H](C)O
Conditions | mass density [kg/m3]
[3], x1 = 1 | 809.572

CCCCOC(=O)[C@H](C)O [butyl L-lactate]
Conditions | mass density [kg/m3] | refractive index
[1] | – | 1.4218
[2] | 982.178 | –

[2]
Conditions | vapor or sublimation pressure [kPa]
390 K | 10.62
395 K | 13.01
400 K | 15.8
405 K | 19.04
410 K | 22.79
415 K | 27.09
420 K | 32
425 K | 37.58
430 K | 43.87
435 K | 50.94
440 K | 58.84
445 K | 67.65
450 K | 77.41
455 K | 88.19
460 K | 100.05
460.75 K | 101.33

CCCCOC(=O)[C@H](C)O [butyl L-lactate] + CCCCO
[3]
Conditions | mass density [kg/m3]
x2 = 0 | 982.178
x2 = 0.0989 | 971.809
x2 = 0.1806 | 962.459
x2 = 0.2599 | 952.704
x2 = 0.3973 | 933.863
x2 = 0.5154 | 915.521
x2 = 0.5669 | 906.818
x2 = 0.6645 | 888.883
x2 = 0.7069 | 880.503
x2 = 0.7854 | 863.836
x2 = 0.8546 | 847.901
x2 = 0.9174 | 832.199
x2 = 0.9728 | 817.297

CCO [ethanol]
Conditions | mass density [kg/m3] | refractive index
[1] | – | 1.3614
[2] | 789.261 | –

Conditions | vapor or sublimation pressure [kPa]
[2], 351.44 K | 101.33

CCO [ethanol] + CCOC(=O)[C@H](C)O
Conditions | mass density [kg/m3]
[3], x1 = 1 | 789.261

CC(C)OC(=O)[C@H](C)O [isopropyl (S)-2-hydroxypropionate]
Conditions | mass density [kg/m3] | refractive index
[1] | – | 1.4105
[2] | 986.942 | –

[2]
Conditions | vapor or sublimation pressure [kPa]
355 K | 7.424
360 K | 9.156
365 K | 11.22
370 K | 13.68
375 K | 16.58
380 K | 20
385 K | 23.99
390 K | 28.63
395 K | 34.02
400 K | 40.24
405 K | 47.39
410 K | 55.59
415 K | 64.93
420 K | 75.56
425 K | 87.6
430 K | 101.19
430.21 K | 101.33

CC(C)OC(=O)[C@H](C)O [isopropyl (S)-2-hydroxypropionate] + CC(C)O
[3]
Conditions | mass density [kg/m3]
x2 = 0 | 986.942
x2 = 0.087 | 976.815
x2 = 0.197 | 962.69
x2 = 0.281 | 950.807
x2 = 0.3554 | 939.404
x2 = 0.542 | 906.498
x2 = 0.5652 | 901.903
x2 = 0.6921 | 874.425
x2 = 0.7733 | 854.447
x2 = 0.8365 | 837.361
x2 = 0.8675 | 828.428
x2 = 0.9249 | 810.801
x2 = 0.9516 | 802.104

CC(C)O [propan-2-ol]
Conditions | mass density [kg/m3] | refractive index
[1] | – | 1.3774
[2] | 785.428 | –

Conditions | vapor or sublimation pressure [kPa]
[2], 355.36 K | 101.33

CC(C)O [propan-2-ol] + CC(C)OC(=O)[C@H](C)O
Conditions | mass density [kg/m3]
[3], x1 = 1 | 785.428
